{
  "source": "patent US8138191B2",
  "about": "“Inhibitor compounds and cancer treatment methods” (Critical Outcome Technologies Inc., priority 2007, dated 2012)",
  "key": {"[1]": {"assay": "A-B Permeability (TC7, pH 7.4/7.4) + verapamil", "type": "in vitro ADME", "details": "human, Caco-2, pH 7.4, with verapamil (concentration not stated), 1.0E−05 M"}, "[2]": {"tested_on": "DMS114 and SHP77 cell lines", "assay": "Microarray differential gene expression analysis", "type": "cell-based, human", "details": "150 or 300 nM, 6 h", "protocol": "For each cell line, four sets of microarray experiments were performed, with each set consisting of control and treated cells exposed for 6 h either to DMSO or COTI-2 at 150 or 300 nM total concentration. Total RNA was prepared with RNeasy (Qiagen) and converted to Cy3 or Cy5-labelled cRNA according to procedures provided with the linear amplification kit from Agilent Technologies. Two hundred […] of labeled cRNA were hybridized to 4×44K Agilent whole genome microarrays, the arrays were washed, scanned and relevant features were extracted according to the manufacturer's protocol and further analyzed as described by Wolber et al. (Methods in Enzymology 410:28-57), which is incorporated herein by reference in its entirety.\nCy5 and Cy3 features were extracted and normalized by median centering the expression values relative to the median value of the 8 hybridization experiments performed on each microarray slide. […] Statistically significant changes in gene expression between treatment and control groups were determined by SAM analysis using TIGR software from The Institute of Genomic Research or by t tests with false discovery correction. Only genes that were differentially expressed in all 4 biologically-independent groups were further analyzed. […] The intersection of common genes was determined using GeneVenn (http://mcbc.usm.edu/qenevenn/genevenn.htm)."}, "[3]": {"tested_on": "HCT-116 human colon tumor xenograft", "assay": "HCT-116 human colon tumor xenograft model", "details": "for Deaths: N 10"}, "[4]": {"tested_on": "normal human peripheral blood mononuclear cells (PBMCs)", "assay": "Flow cytometric analysis of cell death (Annexin V/PI), PBMCs", "type": "cell-based", "details": "PBMC, PBMCs from healthy male and female subjects", "protocol": "All cell lines were grown and exposed to various concentrations of COTI-2 or vehicle only control and the percentage of dead or dying cells were determined 24 and 48 h post-exposure by Annexin V and propidium iodide.\nBlood samples from 2 healthy human volunteers (person) were obtained in 5 ml Vacutainers® containing 100 USP sodium heparin (Becton Dickinson, Franklin Lake, N.J.) and rocked gently to mix, then kept at room temperature. Blood was diluted 1:1 with phosphate buffered saline (PBS) and layered over an equal volume of room temperature Histopaque-1083® (Sigma Diagnostics, St. Louis, Mo.) in a 15 ml conical bottom polyethylene (PET) centrifuge tube (Corning Corporation, Corning, N.Y.). This was centrifuged at 400×g for 30 minutes at 20° C. […]\nCells were plated in 25-cm^2 flasks and treated with COTI-2 (0-100 μM) added from a stock DMSO/DMEM solution such that DMSO concentrations never exceeded 0.5%. […] Resuspended cells (100 μl) were incubated in the dark with 10 μl propidium iodide (PI, 50 ng per ml; Sigma, St. Louis, Mo.) plus Annexin V-FITC (25 ng per ml, green fluorescence; BD Biosciences, Mississauga, Ontario). […] Samples were analyzed for combined Annexin V/PI staining (to assess dead plus apoptotic cells) using a Beckman Coulter EPCS XL-MCL flow cytometer (Beckman Coulter, Hileah, Fla.) and the data were analyzed with CellQuest software."}, "CYP2C9": {"target": "CYP2C9 (Homo sapiens, UniProt P11712)", "sequence (P11712 whole entry)": "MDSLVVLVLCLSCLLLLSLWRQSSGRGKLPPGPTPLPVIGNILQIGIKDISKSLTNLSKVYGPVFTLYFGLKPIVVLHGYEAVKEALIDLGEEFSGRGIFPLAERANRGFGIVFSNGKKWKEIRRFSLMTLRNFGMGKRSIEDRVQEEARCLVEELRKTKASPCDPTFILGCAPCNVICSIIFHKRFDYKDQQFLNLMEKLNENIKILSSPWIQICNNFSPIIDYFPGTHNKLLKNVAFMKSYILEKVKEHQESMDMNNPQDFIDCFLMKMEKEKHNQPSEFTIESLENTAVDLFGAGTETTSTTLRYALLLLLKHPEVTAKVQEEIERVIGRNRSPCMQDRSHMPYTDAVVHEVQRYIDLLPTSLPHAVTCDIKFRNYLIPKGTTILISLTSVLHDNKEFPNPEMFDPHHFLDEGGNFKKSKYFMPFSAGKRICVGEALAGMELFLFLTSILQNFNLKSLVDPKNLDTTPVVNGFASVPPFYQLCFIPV", "assay": "in vitro", "details": "both"}, "SHP77 cells": {"tested_on": "SHP77 cells", "assay": "Western blots of cellular lysates of SHP77 cells treated with COTI-2", "type": "cell-based, human", "details": "250 nM", "protocol": "To confirm this mechanism SHP77 cells were treated with 250 nM of COTI-2 and incubated for 3 and 6 hours. Phospho-Akt expression was decreased as compared to control at both 3 and 6 hours, with corresponding increases in Akt levels."}},
  "note": "Read-outs that look alike come from different tables or passages of the source.",
  "data": [
    {"smiles": "S=C(N/N=C1/CCCc2cccnc21)N1CCN(c2ccccn2)CC1", "note": "[COTI-2]", "values": [
      {"measurement": "recovery at 10 µM", "setting": "[1]; 1st determination, read-out: Percent Recovery 1st", "value": 17, "unit": "%"},
      {"measurement": "recovery at 10 µM", "setting": "[1]; 2nd determination, read-out: Percent Recovery 2nd", "value": 13, "unit": "%"},
      {"measurement": "recovery at 10 µM", "setting": "[1]; mean, read-out: Percent Recovery Mean", "value": 15, "unit": "%"},
      {"measurement": "AKT gene expression", "setting": "[2]", "value": "down-regulated"},
      {"measurement": "Rictor (mTOR-Rictor) expression", "setting": "[2]", "value": "down-regulation of Rictor"},
      {"measurement": "Day 15 Mean tumor weight", "setting": "[3]; COTI-2 12.5 mg/kg IV", "value": "1,471.3 ± 155.9 mg"},
      {"measurement": "Mean survival (Day ± SEM)", "setting": "[3]; COTI-2 12.5 mg/kg IV", "value": "12.8 ± 0.76", "unit": "days"},
      {"measurement": "Maximum weight loss (%) (Day #)", "setting": "[3]; COTI-2 12.5 mg/kg IV, Day 17", "value": 20.96, "unit": "%"},
      {"measurement": "Deaths", "setting": "[3]; COTI-2 12.5 mg/kg IV", "value": 1},
      {"measurement": "Day 15 Mean tumor weight", "setting": "[3]; COTI-2 50.0 mg/kg IV", "value": "1,353.4 ± 127.3 mg"},
      {"measurement": "Mean survival (Day ± SEM)", "setting": "[3]; COTI-2 50.0 mg/kg IV", "value": "12.6 ± 0.83", "unit": "days"},
      {"measurement": "Maximum weight loss (%) (Day #)", "setting": "[3]; COTI-2 50.0 mg/kg IV, Day 22", "value": 18.43, "unit": "%"},
      {"measurement": "Deaths", "setting": "[3]; COTI-2 50.0 mg/kg IV", "value": 2},
      {"measurement": "IC50", "setting": "[4]", "value": "> 100", "unit": "µM"},
      {"measurement": "inhibition at 15 min, 10 µM", "setting": "CYP2C9; human liver microsomes, pH 7.4, probe diclofenac (10 µM)", "value": 2, "unit": "%"},
      {"measurement": "inhibition at 15 min, 10 µM", "setting": "CYP2C9; liver microsomes, pH 7.4, probe diclofenac", "value": "< 50", "unit": "%"},
      {"measurement": "Caspase 8 level of expression", "setting": "SHP77 cells", "value": "remained constant"},
      {"measurement": "phospho-STAT3 expression", "setting": "SHP77 cells", "value": "no change"},
      {"measurement": "Phospho-Akt expression", "setting": "SHP77 cells; 3 and 6 hours", "value": "decreased"},
      {"measurement": "phospho-Caspase 9", "setting": "SHP77 cells; 3 and 6 hrs", "value": "profound suppression"},
      {"measurement": "decrease in total STAT3", "setting": "SHP77 cells; 6 hrs", "value": "~30", "unit": "%"}
    ]}
  ]
}
